Data on one molecule can be found in patent US20090175969A1, “Formulation for treating obesity and associated metabolic syndrome” (priority 2004, published 2009).

For one assay, the system named is lipase. The settings on record: human, three capsules of 120 mg daily; cited from earlier work.
Another assay deals with T1, pancreatic lipase (Homo sapiens, UniProt P16233).
T1 sequence (P16233 17-465): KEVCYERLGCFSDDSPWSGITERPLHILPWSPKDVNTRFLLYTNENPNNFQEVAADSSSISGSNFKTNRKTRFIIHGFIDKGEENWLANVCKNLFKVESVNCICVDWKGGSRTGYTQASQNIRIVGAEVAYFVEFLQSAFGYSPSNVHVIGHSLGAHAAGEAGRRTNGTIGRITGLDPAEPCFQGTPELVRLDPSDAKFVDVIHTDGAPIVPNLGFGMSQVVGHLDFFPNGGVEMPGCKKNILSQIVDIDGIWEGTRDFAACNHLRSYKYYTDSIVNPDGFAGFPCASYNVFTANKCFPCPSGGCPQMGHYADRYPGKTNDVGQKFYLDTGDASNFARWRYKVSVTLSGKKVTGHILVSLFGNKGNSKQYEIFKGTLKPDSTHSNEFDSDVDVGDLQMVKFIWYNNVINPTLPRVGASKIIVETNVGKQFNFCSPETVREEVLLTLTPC
Description: in vitro effect on the activity of pancreatic lipase. It counts as biochemical. The settings on record: concentration of 10 mg, after 45 and 60 minutes, 37° C. The source says:
The composition of the formulation of the invention is presented below in the Table 1: […]

Turning to `CCCCCCCCCCC[C@@H](C[C@@H]1OC(=O)[C@H]1CCCCCC)OC(=O)[C@H](CC(C)C)NC=O` (relative stereo) [Xenical®, ([2S-[2a(R*),3b]]N-formyl-L-leucine 1-[(3-hexyl-4-oxo-2-oxetanyl)methyl]dodecyl ester)], the “consumed fat that goes through the digestive tract without decomposition and is not absorbed” value in the assay on lipase is listed as 30%. Further, the “inhibition of lipase activity” value against pancreatic lipase was “complete inhibition”.
